Consider three compounds from DBAASP.

What all share (test): ≥ marks a high value that may be exact or a test limit, other limits are often not marked, values filed in µg/mL are converted to µM
Experiment [1] deals with Acinetobacter baumannii 4-MRGN.
The subject of experiment [2] is Pseudomonas aeruginosa ATCC 27853.
Experiment [3] concerns Staphylococcus aureus USA 300.
In experiment [4] the test system is Enterococcus faecium.
Experiment [5] has as its system Salmonella enterica MTCC 9844.
Experiment [6] concerns Pseudomonas aeruginosa MTCC 3542.
For experiment [7], the system named is Haemophilus influenzae MTCC 621.
Experiment [8] has as its system Citrobacter koseri MTCC 1657.
The subject of experiment [9] is Corynebacterium glutamicum MTCC 2679.
The test system of experiment [10] is Escherichia coli K12 MG1655.
Experiment [11] has as its system Alkalihalobacillus alcalophilus MTCC 860.
For experiment [12], the system named is Klebsiella aerogenes MTCC 111.
Experiment [13] relates to Staphylococcus haemolyticus MTCC 3383.
In experiment [14] the test system is Enterococcus faecalis MTCC 439.
The subject of experiment [15] is Shigella boydii MTCC 11947.
Experiment [16] deals with Klebsiella pneumoniae MTCC 7407.
Experiment [17] has as its system Shigella flexneri MTCC 1457.
For experiment [18], the system named is Alcaligenes faecalis MTCC 1937.
Experiment [19] relates to Salmonella enterica subsp. enterica serovar Typhimurium ATCC 14028.
The subject of experiment [20] is Citrobacter freundii MTCC 1658.
Experiment [21] relates to Acinetobacter baumannii MTCC 9829.
For experiment [22], the system named is Bordetella bronchiseptica MTCC 6837.
The subject of experiment [23] is Stenotrophomonas maltophilia MTCC 1890.
The subject of experiment [24] is Vibrio cholerae MTCC 3904.
Experiment [25] relates to Proteus vulgaris MTCC 1771.
Experiment [26] relates to Staphylococcus aureus MTCC 3160.
In experiment [27] the test system is Klebsiella oxytoca MTCC 2275.
Experiment [28] concerns Proteus mirabilis MTCC 3158.
The subject of experiment [29] is Pluralibacter gergoviae MTCC 3826.
Experiment [30] concerns Escherichia coli O157:H7 CB6392.
The subject of experiment [31] is Candida albicans.
Experiment [32] relates to Escherichia coli ATCC 35218.
Experiment [33] concerns Escherichia coli AX-100-3-1.
In experiment [34] the test system is Escherichia coli O157:H7 30328.
Experiment [35] relates to Escherichia coli U7794.
Experiment [36] deals with Escherichia coli O157:H7 734/94.
In experiment [37] the test system is Escherichia coli AX-054-1-3.
Experiment [38] relates to Escherichia coli 0164 EIEC6.
The test system of experiment [39] is Enterococcus faecalis ATCC 29212.
The subject of experiment [40] is Escherichia coli 0112 EIEC26.
For experiment [41], the system named is Escherichia coli O157:H7 282.
Experiment [42] deals with Klebsiella pneumoniae KK3 9904.
Experiment [43] deals with Escherichia coli 0143 EIEC7.
In experiment [44] the test system is Staphylococcus aureus.
For experiment [45], the system named is Escherichia coli AX-109-2-3.
The test system of experiment [46] is Staphylococcus epidermidis RP62A.
Experiment [47] concerns Escherichia coli ATCC 25922.
Experiment [48] relates to Candida albicans ATCC 90028.
In experiment [49] the test system is Escherichia coli O6:K15:H31 536.
Experiment [50] deals with Escherichia coli U7103.
For experiment [51], the system named is Staphylococcus aureus NCTC 8325.
For experiment [52], the system named is Escherichia coli 0112 EIEC27.
The test system of experiment [53] is Escherichia coli AX-128-3-3.
Experiment [54] relates to Escherichia coli O26:H11 3.
For experiment [55], the system named is Escherichia coli O26:H- CB6418.
The subject of experiment [56] is Proteus mirabilis ATCC 25933.
Experiment [57] deals with Escherichia coli.
In experiment [58] the test system is Enterobacter cloacae NHTCC 53001.
The subject of experiment [59] is Escherichia coli 0152 EIEC1.

Values after ≈ are worked out from the molar mass of the structure shown.

For the compound `C[C@H](N)C(=O)N[C@H](C(=O)N[C@H]1CSSC[C@@H](C(=O)N[C@@H](CCCN=C(N)N)C(=O)N[C@H](C(=O)NCC(=O)N[C@@H](CCCN=C(N)N)C(=O)O)[C@@H](C)O)NC(=O)[C@H](Cc2ccc(O)cc2)NC1=O)[C@@H](C)O` [ATCYCRTGR], the MIC in [1] is 25 µM (≈ 25.7 µg/mL); in experiment [2], 50 µM (≈ 51.4 µg/mL); in [3] it was at least 50 µM; in experiment [4] it was 25 µM (≈ 25.7 µg/mL).

As for `CC[C@H](C)[C@H](NC(=O)[C@H](C)NC(=O)[C@H](CCCN=C(N)N)NC(=O)[C@H](C)NC(=O)[C@H](CC(C)C)NC(=O)[C@@H](N)Cc1ccc(O)cc1)C(=O)N[C@@H](CCCN=C(N)N)C(=O)N[C@@H](CCCN=C(N)N)C(=O)N[C@H](C(=O)N[C@@H](CC(C)C)C(=O)N[C@@H](C)C(=O)N[C@@H](CCCN=C(N)N)C(=O)N[C@@H](CC(C)C)C(=O)N[C@@H](CC(C)C)C(=O)N[C@@H](CC(C)C)C(=O)O)[C@@H](C)O` [YLARAIRRTLARLLL], the MIC in experiment [5] is 8.89 µM (≈ 16 µg/mL); in experiment [6], at least 71.1 µM; in experiment [7], 4.45 µM (≈ 8 µg/mL); in [8], 8.89 µM (≈ 16 µg/mL); in [9], 2.22 µM (≈ 4 µg/mL); in experiment [10], 17.8 µM (≈ 32 µg/mL). Further, the MIC was 8.89 µM (≈ 16 µg/mL) in experiment [11]; 17.8 µM (≈ 32 µg/mL) in experiment [12]; 8.89 µM (≈ 16 µg/mL) in [13]; at least 35.6 µM in [14]; 17.8 µM (≈ 32 µg/mL) in experiment [15]; 17.8 µM (≈ 32 µg/mL) in experiment [16]. Also, the MIC in [17] was determined as 4.45 µM (≈ 8 µg/mL); in experiment [18], 17.8 µM (≈ 32 µg/mL); in [19], 17.8 µM (≈ 32 µg/mL); in experiment [20] it was 8.89 µM (≈ 16 µg/mL); in experiment [21] it was 8.89 µM (≈ 16 µg/mL); in experiment [22], 2.22 µM (≈ 4 µg/mL). Also, the MIC is 8.89 µM (≈ 16 µg/mL) in [23]; at least 35.6 µM in experiment [24]; at least 71.1 µM in experiment [25]; 8.89 µM (≈ 16 µg/mL) in experiment [26]; 8.89 µM (≈ 16 µg/mL) in experiment [27]; at least 71.1 µM in [28]. Further, the MIC in experiment [29] is at least 71.1 µM.

`CC[C@@H](C)[C@H](N=C(O)[C@H](CCCCN)N=C(O)C(CS)N=C(O)C(C)N=C(O)[C@H](N=C(O)[C@@H](Cc1ccccc1)N=C(O)CN=C(O)[C@H](CC(C)C)N=C(O)CN=C(O)[C@H](N=C(O)[C@H](CCCCN)N=C(O)CN=C(O)[C@H](CC(C)C)N=C(O)[C@H](CC(=N)O)N=C(O)[C@H](CCCCN)N=C(O)[C@H](CC(C)C)N=C(O)[C@H](N=C(O)[C@H](CO)N=C(O)C(CC(C)C)N=C(O)[C@H](CCSC)N=C(O)[C@H](N)CO)C(C)C)C(C)C)C(C)C)C(O)=N[C@H](CC(=N)O)C(O)=N[C@H](CCCCN)C(O)=N[C@H](CCC(=N)O)C(O)=N[C@H](CS)C(=O)O` (stereo not given in full) [SMLSVLKNLGKVGLGFVACKINKQC]: the MIC in [30] was 10 µM (≈ 26.5 µg/mL); in experiment [31] it was 70 µM (≈ 186 µg/mL); in [32], 20 µM (≈ 53 µg/mL); in experiment [33] it was 20 µM (≈ 53 µg/mL); in experiment [34], 10 µM (≈ 26.5 µg/mL); in [35], 10 µM (≈ 26.5 µg/mL). The MIC in experiment [36] was 10 µM (≈ 26.5 µg/mL); in [37], 20 µM (≈ 53 µg/mL); in experiment [38] it was 20 µM (≈ 53 µg/mL); in experiment [39] it was 20 µM (≈ 53 µg/mL); in experiment [40], at least 40 µM; in experiment [41] it was 5 µM (≈ 13.3 µg/mL). Moreover, the MIC is at least 40 µM in [42]; 20 µM (≈ 53 µg/mL) in experiment [43]; 50 µM (≈ 133 µg/mL) in experiment [44]; 10 µM (≈ 26.5 µg/mL) in experiment [45]; 20 µM (≈ 53 µg/mL) in experiment [46]; 20 µM (≈ 53 µg/mL) in experiment [47]. Besides, the MIC in experiment [2] was 20 µM (≈ 53 µg/mL); in experiment [48], at least 40 µM; in experiment [49] it was 5 µM (≈ 13.3 µg/mL); in experiment [50], 5 µM (≈ 13.3 µg/mL); in experiment [51], 20 µM (≈ 53 µg/mL); in experiment [52], 20 µM (≈ 53 µg/mL). For the same compound, the MIC is 10 µM (≈ 26.5 µg/mL) in [53]; 5 µM (≈ 13.3 µg/mL) in experiment [54]; 10 µM (≈ 26.5 µg/mL) in [55]; at least 100 µM in experiment [56]; 2 µM (≈ 5.3 µg/mL) in experiment [57]; 20 µM (≈ 53 µg/mL) in [58]. In experiment [59], the MIC was found to be 20 µM (≈ 53 µg/mL).
